The target of this experiment is SARS-CoV-2 Mpro (Severe acute respiratory syndrome coronavirus 2, UniProt P0DTD1). Kind of experiment: Modified SARS-CoV-2 Mpro enzyme assay (FRET, kinetic read) for reference examples. The format is biochemical. The note with it: 5 nM Mpro, 20 min preincubation at room temperature, mean n=2, set out in PCT/GB2022/050836.
Turning to “(1R,2S,5S)-N-(4-(cyclopropylamino)-3,4-dioxo-1-((S)-2-oxopyrrolidin-3-yl)butan-2-yl)-3-((E)-3-(2,4-difluorophenyl)acryloyl)-6,6-dimethyl-3-azabicyclo[3.1.0]hexane-2-carboxamide [Example 7]”, the “SARS-CoV-2 Mpro enzyme pKi assay pKi” value turned out to be 6.7. Regarding “(1R,2S,5S)-N-(4-(cyclopropylamino)-3,4-dioxo-1-((S)-2-oxopyrrolidin-3-yl)butan-2-yl)-3-((S)-3,3-dimethyl-2-(2,2,2-trifluoroacetamido)butanoyl)-6,6-dimethyl-3-azabicyclo[3.1.0]hexane-2-carboxamide [Example 1]”, the “SARS-CoV-2 Mpro enzyme pKi assay pKi” value was found to be 7.8. The value for “(1R,2S,5S)-N-[1-(cyclopropylmethyl)-3-(methylamino)-2,3-dioxo-propyl]-3-[(2S)-3,3-dimethyl-2-[(2,2,2-trifluoroacetyl)amino]butanoyl]-6,6-dimethyl-3-azabicyclo[3.1.0]hexane-2-carboxamide [Example 2]” was 7.3; that for “(1R,2S,5S)-N-[3-(cyclopropylamino)-2,3-dioxo-1-[(3S)-2-oxopyrrolidin-3-yl]methyl]propyl]-3-[(2S)-3,3-dimethyl-2-(2-methylpropanoylamino)butanoyl]-6,6-dimethyl-3-azabicyclo[3.1.0]hexane-2-carboxamide [Example 5]” was 6.8.

For “(1R,2S,5S)-N-[3-(cyclopropylamino)-2,3-dioxo-1-[[(3R)-2-oxo-3-piperidyl]methyl]propyl]-3-[(2S)-3,3-dimethyl-2-[(2,2,2-trifluoroacetyl)amino]butanoyl]-6,6-dimethyl-3-azabicyclo[3.1.0]hexane-2-carboxamide [Example 6]”, the “SARS-CoV-2 Mpro enzyme pKi assay pKi” value amounted to 6.7. The value for “(1R,2S,5S)-N-[3-amino-1-(cyclobutylmethyl)-2,3-dioxo-propyl]-3-[(2S)-3,3-dimethyl-2-[(2,2,2-trifluoroacetyl)amino]butanoyl]-6,6-dimethyl-3-azabicyclo[3.1.0]hexane-2-carboxamide [Example 4]” was 7.3; that for “(1R,2S,5S)-N-[3-amino-1-(cyclopropylmethyl)-2,3-dioxo-propyl]-6,6-dimethyl-3-[(2S)-3-methyl-2-[(2,2,2-trifluoroacetyl)amino]butanoyl]-3-azabicyclo[3.1.0]hexane-2-carboxamide [Example 3]” was 7.1.

The values are drawn from patent US20260109672A1, “SARS-COV-2 MPRO INHIBITORS AND USES THEREOF” (NXERA PHARMA UK LIMITED, priority 2022, published 2026).
